Test results: ChEMBL document CHEMBL1121503, “Estrogen receptor based imaging agents. 2. Synthesis and receptor binding affinity of side-chain halogenated hexestrol derivatives” (J Med Chem, 1980)

Biological target: Estrogen receptor (Ovis aries) (UniProt P49885+Q9TU15)

| RAC | SMILES |
| --- | --- |
| 32 | Oc1ccc(C(=C2CCCCC2)c2ccc(O)cc2)cc1 |
| 60 | CCC(c1ccc(O)cc1)C(CCI)c1ccc(O)cc1 (stereo not given) |
| 129 | CCC(c1ccc(O)cc1)C(CCF)c1ccc(O)cc1 (stereo not given) |
| 20 | C/C(=C(/C)c1ccc(O)cc1)c1ccc(O)cc1 |
| 113 | CCC(c1ccc(O)cc1)C(CCCl)c1ccc(O)cc1 (stereo not given) |
| 48 | Oc1ccc(/C(=C(/c2ccc(O)cc2)C(F)(F)F)C(F)(F)F)cc1 |
| 10 | Oc1ccc(/C(=C(/c2ccccc2)C(F)(F)F)C(F)(F)F)cc1 |
| 21 | Oc1ccc(C(=C(C(F)(F)F)C(F)(F)F)c2ccccc2)cc1 |
| 300 | CC[C@H](c1ccc(O)cc1)[C@@H](CC)c1ccc(O)cc1 |
| 71 | CCC(c1ccc(O)cc1)C(CCBr)c1ccc(O)cc1 (stereo not given) |
